# In ChEMBL document CHEMBL4177613, “Development of photoaffinity derivatives of the antitumor macrolide aplyronine A, a PPI-inducer between actin and tubulin” (Bioorg Med Chem, 2017):
# pIC50: −log10 of the molar value. Active and inactive are the calls of the source. No cut-off for these calls is given here.
# Tests used:
# HeLa S3 = assay: Cytotoxicity against human HeLaS3 cells after 96 hrs by MTT assay; type: functional, cell-based; conditions: HeLa S3, 96 h
# Oryctolagus cuniculus [1] = organism: Oryctolagus cuniculus; assay: Inhibition of rabbit skeletal muscle F-actin polymerization at 3 uM after 1 hr by SDS-PAGE assay
# [2] = Binding affinity to rabbit skeletal muscle actin/porcine brain tubulin preincubated for 30 mins followed by UV irradiation of 0.8 mW for 15 mins measured after 30 mins by TAMRA azide-based fluorescence SDS-PAGE analysis
# Oryctolagus cuniculus [3] = organism: Oryctolagus cuniculus; assay: Binding affinity to rabbit skeletal muscle actin preincubated for 30 mins followed by UV irradiation of 0.8 mW for 15 mins measured after 30 mins by TAMRA azide-based fluorescence SDS-PAGE analysis
# Sus scrofa = organism: Sus scrofa; assay: Binding affinity to pig brain tubulin preincubated for 30 mins followed by UV irradiation of 0.8 mW for 15 mins measured after 30 mins by TAMRA azide-based fluorescence SDS-PAGE analysis
# Oryctolagus cuniculus [4] = organism: Oryctolagus cuniculus; assay: Binding affinity to rabbit skeletal muscle actin preincubated for 60 mins followed by UV irradiation for 15 mins in presence of aplyronine A by SDS-PAGE analysis
# [5] = Binding affinity to rabbit skeletal muscle actin/pig brain tubulin preincubated for 60 mins followed by UV irradiation for 15 mins in presence of aplyronine A by SDS-PAGE analysis
Compound,Activity [2],Activity (Oryctolagus cuniculus [3]),Activity (Sus scrofa),Activity (Oryctolagus cuniculus [4]),Activity [5],pIC50 (HeLa S3),inhibition (Oryctolagus cuniculus [1])
COCC(C(=O)O[C@@H]1C/C=C/C=C/C(=O)O[C@H]([C@@H](C)[C@@H](O)[C@@H](C)CC[C@@H](OC(=O)[C@H](C)N(C)C)[C@H](C)[C@H](OC(C)=O)[C@H](C)/C=C/N(C)C=O)C/C=C/[C@H](OC)C[C@H](C)C/C=C(\C)[C@@H](OC)CC[C@@H](C)[C@@H](O)[C@@H]1C)N(C)C (stereo not given in full),inactive,,,,,11.00,Active
COCC(C(=O)O[C@@H]1C/C=C/C=C/C(=O)O[C@H]([C@@H](C)[C@@H](O)[C@@H](C)CC[C@@H](OC(=O)[C@H](C)N(C)C)[C@H](C)[C@H](OC(C)=O)[C@H](C)CC=NOCC(=O)NCCCC[C@H](NC(=O)c2ccc(C3(C(F)(F)F)N=N3)cc2)C(=O)NCCCOCCOCCOCCCNC(=O)CCCC[C@@H]2SC[C@@H]3NC(=O)N[C@@H]32)C/C=C/[C@H](OC)C[C@H](C)C/C=C(\C)[C@@H](OC)CC[C@@H](C)[C@@H](O)[C@@H]1C)N(C)C (stereo not given in full),,,,,,8.92,
C#CCNC(=O)[C@H](CCCCNC(=O)CON=CC[C@@H](C)[C@@H](OC(C)=O)[C@@H](C)[C@@H](CC[C@H](C)[C@H](O)[C@H](C)[C@@H]1C/C=C/[C@H](OC)C[C@H](C)C/C=C(\C)[C@@H](OC)CC[C@@H](C)[C@@H](O)[C@H](C)[C@H](OC(=O)C(COC)N(C)C)C/C=C/C=C/C(=O)O1)OC(=O)[C@H](C)N(C)C)NC(=O)CCC(=O)NCCCOCCOCCOCCCNC(=O)c1ccc(C2(C(F)(F)F)N=N2)cc1 (stereo not given in full),inactive,Active,inactive,,,8.92,Active
COCC(C(=O)O[C@@H]1C/C=C/C=C/C(=O)O[C@H]([C@@H](C)[C@@H](O)[C@@H](C)CC[C@@H](OC(=O)[C@H](C)N(C)C)[C@H](C)[C@H](OC(C)=O)[C@H](C)CC=NOCC(=O)NCCCC[C@H](NC(=O)CCC(=O)NCCCOCCOCCOCCCNC(=O)c2ccc(C3(C(F)(F)F)N=N3)cc2)C(=O)NCCCCCCNC(=O)c2ccc(-c3c4ccc(N(C)C)cc4[o+]c4cc(N(C)C)ccc34)c(C(=O)[O-])c2)C/C=C/[C@H](OC)C[C@H](C)C/C=C(\C)[C@@H](OC)CC[C@@H](C)[C@@H](O)[C@@H]1C)N(C)C (stereo not given in full),,,,Active,inactive,7.55,

# Further lines, with some results ahead:
Activity [2],Activity (Oryctolagus cuniculus [3]),Activity (Sus scrofa),Activity (Oryctolagus cuniculus [4]),Activity [5],Compound,pIC50 (HeLa S3),inhibition (Oryctolagus cuniculus [1])
,Active,,,,C#CCNC(=O)[C@H](CCCCNC(=O)CON=CC[C@@H](C)[C@@H](OC(C)=O)[C@@H](C)[C@@H](CC[C@H](C)[C@H](O)[C@H](C)[C@@H]1C/C=C/[C@H](OC)C[C@H](C)C/C=C(\C)[C@@H](OC)CC[C@@H](C)[C@@H](O)[C@H](C)[C@H](OC(=O)C(COC)N(C)C)C/C=C/C=C/C(=O)O1)OC(=O)[C@H](C)N(C)C)NC(=O)c1ccc(C2(C(F)(F)F)N=N2)cc1 (stereo not given in full),9.12,
Active,,Active,,,COCC(C(=O)O[C@@H]1C/C=C/C=C/C(=O)O[C@H]([C@@H](C)[C@@H](O)[C@@H](C)CC[C@@H](OC(=O)[C@H](C)N(C)C)[C@H](C)[C@H](OC(C)=O)[C@H](C)CC=NOCC(=O)NCCCC[C@H](NC(=O)CCC(=O)NCCCOCCOCCOCCCNC(=O)c2ccc(C3(C(F)(F)F)N=N3)cc2)C(=O)NCCCOCCOCCOCCCNC(=O)CCCC[C@@H]2SC[C@@H]3NC(=O)N[C@@H]32)C/C=C/[C@H](OC)C[C@H](C)C/C=C(\C)[C@@H](OC)CC[C@@H](C)[C@@H](O)[C@@H]1C)N(C)C (stereo not given in full),9.27,
,,,Active,inactive,COCC(C(=O)O[C@@H]1C/C=C/C=C/C(=O)O[C@H]([C@@H](C)[C@@H](O)[C@@H](C)CC[C@@H](OC(=O)[C@H](C)N(C)C)[C@H](C)[C@H](OC(C)=O)[C@H](C)CC=NOCC(=O)NCCCC[C@H](NC(=O)c2ccc(C3(C(F)(F)F)N=N3)cc2)C(=O)NCCCCCCNC(=O)c2ccc(-c3c4ccc(N(C)C)cc4[o+]c4cc(N(C)C)ccc34)c(C(=O)[O-])c2)C/C=C/[C@H](OC)C[C@H](C)C/C=C(\C)[C@@H](OC)CC[C@@H](C)[C@@H](O)[C@@H]1C)N(C)C (stereo not given in full),7.89,
